The values that follow come from US6331551A, “Methods of treating microbial infection and therapeutic formulations therefor” (priority 2000, dated 2001).

Converted amounts (≈) assume the structure as drawn.

The subject of one experiment is gram negative acne. The settings on record: oral, subsequent to oral tetracycline or erythromycin; Poli et al. 1988; cited from earlier work.
The next experiment relates to bacteria tested. The experiment is described as follows: Disk antibacterial test, overall. It counts as cell-based. Particulars: in general. How it is done:
(§1) The following seven bacteria were grown on nutrient agar slants for 48 hours at 37° C.: Enterobacter aerogens, Propionibacterium acnes, Pseudomonas aeruginosa, Escherichia coli, Bacillus subtilis, Agrobacterium tumefaciens, and Staphylococcus aureus.
(§2) A bacterial colony from each of the respective slants was suspended in 1 ml sterile deionized water. 0.1 ml of each cell suspension was evenly spread on nutrient agar plates (10×10^5 cells/ml). After 30 min, sclareol and sclareolide-impregnated disks were placed on bacteria-lawned plates. The sclareol and sclareolide used in this experiment were relatively pure samples (greater than 99% pure). Triplicate disks of (10, 100, 500, and 1000 ug/disk) of each sample was applied on to 6 mm diameter (0.3 mm thickness) filter paper disks and air dried. Controls were prepared with respective solvents. Plates were incubated for 24-48 hr at 37° C. The inhibition zones were measured and recorded after 15 hr, up to 48 hr.

The subject of the next experiment is Pseudomonas aeruginosa. The experiment in a line: Disk zone of inhibition / antibacterial activity. It counts as cell-based. Particulars: P. aeruginosa; for MIC: Pseudomonas aeruginosa. Details: key to Zone of inhibition: +++: High inhibition; ++: moderate inhibition; +: low inhibition; -: non inhibition. How it is done:
as §1, §2
(§3) A summary of the effects of sclareol and sclareolide against the bacteria and fungi tested in Examples 1 and 2 is provided in Table 3. The data is presented as the effect of sclareol and sclareolide on selected microbial cultures, in terms of minimum inhibitory concentration, as measured in μg/ml.

Another experiment has as its system Enterobacter aerogens. The experiment in a line: Disk zone of inhibition / antibacterial activity. Particulars: E. aerogens; for MIC: Enterobacter. Details: key to Zone of inhibition: +++: High inhibition; ++: moderate inhibition; +: low inhibition; -: non inhibition. It counts as cell-based. How it is done:
as §1, §2, §3

In another experiment the test system is Propionibacterium acnes. The experiment is described as follows: Disk zone of inhibition / antibacterial activity. It counts as cell-based. Further details: key to Zone of inhibition: +++: High inhibition; ++: moderate inhibition; +: low inhibition; -: non inhibition. Particulars: P. acnes; for MIC: Cutibacterium acnes. The method, then:
as §1, §2, §3

Another experiment concerns Staphylococcus aureus. The experiment is described as follows: Disk zone of inhibition / antibacterial activity. Details: key to Zone of inhibition: +++: High inhibition; ++: moderate inhibition; +: low inhibition; -: non inhibition. The experiment is classed as cell-based. The settings on record: S. aureus; for MIC: Staphylococcus aureus. The method, then: as §1, §2, §3

Another experiment has as its system Escherichia coli. The experiment is described as follows: Disk zone of inhibition / antibacterial activity. The experiment is classed as cell-based. Further details: key to Zone of inhibition: +++: High inhibition; ++: moderate inhibition; +: low inhibition; -: non inhibition. The settings on record: E. coli; for MIC: Escherichia coli. How it is done:
as §1, §2, §3

Experiment [1] deals with Agrobacterium tumefaciens. The experiment is described as follows: Disk zone of inhibition / antibacterial activity. Particulars: A. tumefaciens; for MIC: Agrobacterium tumefaciens. Further details: key to Zone of inhibition: +++: High inhibition; ++: moderate inhibition; +: low inhibition; -: non inhibition. The experiment is classed as cell-based. The method, then:
as §1, §2, §3

The test system of the next experiment is Bacillus subtilis. The experiment is described as follows: Disk zone of inhibition / antibacterial activity. Further details: key to Zone of inhibition: +++: High inhibition; ++: moderate inhibition; +: low inhibition; -: non inhibition. It counts as cell-based. Particulars: for MIC: Bacillus subtilis, B. subtilis; for Zone of inhibition: D. subtilis [sic]. The method, then:
as §1, §2, §3

The subject of experiment [2] is Gram positive bacteria, specifically, S. aureus and P. acnes. The experiment is described as follows: Disk antibacterial test, Gram positive bacteria. The experiment is classed as cell-based. How it is done:
as §1, §2

The next experiment has as its system Penicillium notatum. The experiment is described as follows: Antifungal MIC on potato dextrose agar. The experiment is classed as cell-based. Particulars: Penicillium chrysogenum, PDA, 26° C., 48 hr up to one week. How it is done:
(§4) The yeast and fungi listed below in Table 2 were grown on potato dextrose agar (PDA) containing different concentrations of sclareol and sclareolide, according to the following method: sclareol or sclareolide (in powder form) was added to pre-measured amounts of PDA medium in petri plates, mixed thoroughly by tilting the petri plate from side to side, and allowed to solidify. The sclareol and […] in preparing the petri plates was of greater than 99% purity. After solidification, the plates were inoculated with 5 mm disks, cut from the outer margin of the actively growing cultures of yeast and fungi and placed in the center of the plate in an inverted position in direct contact with the sclareol/sclareolide impregnated medium. The plates were incubated at 26° C. The plates were monitored periodically to estimate the minimum inhibitory concentration (MIC) based on the growth proliferation from the 5 mm inoculum disk. The results were measured and recorded after 48 hr, up to one week. A summary of the effects of sclareol and sclareolide against the bacteria and fungi tested in Examples 1 and 2 is provided in Table 3. The data is presented as the effect of sclareol and sclareolide on selected microbial cultures, in terms of minimum inhibitory concentration, as measured in μg/ml.

Another experiment deals with Candida kefyr. The experiment in a line: Antifungal MIC on potato dextrose agar. The experiment is classed as cell-based. The settings on record: Kluyveromyces marxianus, PDA, 26° C., 48 hr up to one week. The method, then:
as §4

For the next experiment, the system named is Aspergillus flavus. The experiment is described as follows: Antifungal MIC on potato dextrose agar. It counts as cell-based. Particulars: PDA, 26° C., 48 hr up to one week. How it is done:
as §4

Another experiment has as its system Saccharomyces cerevisiae. The experiment in a line: Antifungal MIC on potato dextrose agar. It counts as cell-based. Particulars: PDA, 26° C., 48 hr up to one week. The method, then: as §4

On to `CC1(C)S[C@@H]2[C@H](NC(=O)[C@H](N)c3ccccc3)C(=O)N2[C@H]1C(=O)O` [ampicillin], for which, in the experiment with gram negative acne, the “effectiveness in treating gram negative acne” value is listed as “effective”.
Take `CC1(C)S[C@@H]2[C@H](NC(=O)[C@H](N)c3ccc(O)cc3)C(=O)N2[C@H]1C(=O)O` [amoxicillin]: in the experiment with gram negative acne, the “effectiveness in treating gram negative acne” value is given as “effective”.
For `C=C[C@](C)(O)CC[C@@H]1[C@@]2(C)CCCC(C)(C)[C@@H]2CC[C@@]1(C)O` [Sclareol, sclareol], the “relative activity against the bacteria tested” value in the experiment with bacteria tested is “more active than sclareolide”. The sensitivity to treatment entry in the experiment with Pseudomonas aeruginosa was “least sensitive”; in the experiment with Enterobacter aerogens, “more sensitive”; with Propionibacterium acnes, “more sensitive”; in the experiment on Staphylococcus aureus, “more sensitive”; with Escherichia coli, “least sensitive”. The Zone of inhibition entry is listed as “-” in the experiment with Pseudomonas aeruginosa (10 ug/disk); “+” in the experiment with Pseudomonas aeruginosa (100 ug/disk); “++” in the experiment with Pseudomonas aeruginosa (500 ug/disk); “++” with Pseudomonas aeruginosa (1000 ug/disk); “+” in the experiment on Enterobacter aerogens (10 ug/disk); “+++” in the experiment on Enterobacter aerogens (100 ug/disk). Further, the Zone of inhibition entry is reported as “+++” in the experiment with Enterobacter aerogens (500 ug/disk); “+++” in the experiment with Enterobacter aerogens (1000 ug/disk); “+” in the experiment on Propionibacterium acnes (10 ug/disk); “+++” with Propionibacterium acnes (100 ug/disk); “+++” with Propionibacterium acnes (500 ug/disk); “+++” with Propionibacterium acnes (1000 ug/disk). The Zone of inhibition entry in the experiment with Staphylococcus aureus (10 ug/disk) is on record as “+”; in the experiment on Staphylococcus aureus (100 ug/disk), “++”; in the experiment with Staphylococcus aureus (500 ug/disk), “+++”; in the experiment on Staphylococcus aureus (1000 ug/disk) it was “+++”; in the experiment with Escherichia coli (10 ug/disk), “-”; in the experiment on Escherichia coli (100 ug/disk), “-”. Also, the Zone of inhibition entry with Escherichia coli (500 ug/disk) was “+”; in the experiment with Escherichia coli (1000 ug/disk), “++”; in [1] (10 ug/disk), “+”; in [1] (100 ug/disk) it was “++”; in [1] (500 ug/disk), “+++”; in experiment [1] (1000 ug/disk), “+++”. In addition, the Zone of inhibition result is reported as “+” in the experiment with Bacillus subtilis (10 ug/disk), “+” in the experiment with Bacillus subtilis (100 ug/disk), “++” in the experiment on Bacillus subtilis (500 ug/disk) and “++” in the experiment on Bacillus subtilis (1000 ug/disk). For the same compound, the MIC (in general, the lowest concentration that inhibits growth of the organism) with Pseudomonas aeruginosa came to 100 µg/mL (≈ 324 µM); against Enterobacter aerogens, 10 µg/mL (≈ 32.4 µM); with Propionibacterium acnes it was 40 µg/mL (≈ 130 µM); in the experiment with Staphylococcus aureus, 50 µg/mL (≈ 162 µM); in the experiment on Escherichia coli, 500 µg/mL (≈ 1620 µM); in experiment [1], 10 µg/mL (≈ 32.4 µM). Moreover, the MIC was found to be 10 µg/mL (≈ 32.4 µM) in the experiment with Bacillus subtilis; 1000 µg/mL (≈ 3240 µM) in the experiment with Penicillium notatum; 100 µg/mL (≈ 324 µM) against Candida kefyr; 1000 µg/mL (≈ 3240 µM) with Aspergillus flavus; 500 µg/mL (≈ 1620 µM) against Saccharomyces cerevisiae. The “activity against Gram positive bacteria” value in experiment [2] is “more active against Gram positive bacteria”.
For `CC1(C)CCCC2(C)C1CCC1(C)OC(=O)CC12` (single isomer, unassigned) [Sclareolide, sclareolide], the sensitivity to treatment result in the experiment with Pseudomonas aeruginosa was “least sensitive”; in the experiment on Enterobacter aerogens it was “more sensitive”; in the experiment with Propionibacterium acnes it was “more sensitive”; in the experiment with Staphylococcus aureus, “more sensitive”; in the experiment with Escherichia coli, “least sensitive”. In addition, the Zone of inhibition result in the experiment with Pseudomonas aeruginosa (10 ug/disk) is recorded as “-”; in the experiment on Pseudomonas aeruginosa (100 ug/disk), “-”; in the experiment with Pseudomonas aeruginosa (500 ug/disk), “++”; with Pseudomonas aeruginosa (1000 ug/disk) it was “++”; in the experiment with Enterobacter aerogens (10 ug/disk), “+”; with Enterobacter aerogens (100 ug/disk), “++”. Besides, the Zone of inhibition entry was “+++” with Enterobacter aerogens (500 ug/disk); “+++” with Enterobacter aerogens (1000 ug/disk); “+” with Propionibacterium acnes (10 ug/disk); “+++” with Propionibacterium acnes (100 ug/disk); “+++” in the experiment with Propionibacterium acnes (500 ug/disk); “+++” in the experiment on Propionibacterium acnes (1000 ug/disk). The Zone of inhibition entry is “+” with Staphylococcus aureus (10 ug/disk); “++” in the experiment with Staphylococcus aureus (100 ug/disk); “+++” in the experiment with Staphylococcus aureus (500 ug/disk); “+++” in the experiment on Staphylococcus aureus (1000 ug/disk); “-” in the experiment on Escherichia coli (10 ug/disk); “-” with Escherichia coli (100 ug/disk). Moreover, the Zone of inhibition result in the experiment with Escherichia coli (500 ug/disk) is on record as “+”; in the experiment with Escherichia coli (1000 ug/disk), “++”; in [1] (10 ug/disk), “+”; in experiment [1] (100 ug/disk) it was “++”; in experiment [1] (500 ug/disk), “+++”; in experiment [1] (1000 ug/disk), “+++”. The Zone of inhibition entry with Bacillus subtilis (10 ug/disk) was “+”; with Bacillus subtilis (100 ug/disk) it was “+”; in the experiment with Bacillus subtilis (500 ug/disk), “+”; in the experiment on Bacillus subtilis (1000 ug/disk), “++”. Moreover, the minimum inhibitory concentration (MIC) against Pseudomonas aeruginosa was 500 µg/mL (≈ 2000 µM); in the experiment with Enterobacter aerogens, 10 µg/mL (≈ 39.9 µM); in the experiment with Propionibacterium acnes, 40 µg/mL (≈ 160 µM); in the experiment with Staphylococcus aureus, 50 µg/mL (≈ 200 µM); in the experiment with Escherichia coli it was 500 µg/mL (≈ 2000 µM); in [1], 10 µg/mL (≈ 39.9 µM). Besides, the MIC in the experiment with Bacillus subtilis was 10 µg/mL (≈ 39.9 µM); in the experiment on Penicillium notatum, 1000 µg/mL (≈ 3990 µM); in the experiment with Candida kefyr, 400 µg/mL (≈ 1600 µM); in the experiment on Aspergillus flavus, 1000 µg/mL (≈ 3990 µM); against Saccharomyces cerevisiae it was 500 µg/mL (≈ 2000 µM). For the same compound, the “activity against Gram positive bacteria” value in experiment [2] was “more active against Gram positive bacteria”.
